For the test, the target named is Farnesyl pyrophosphate synthase (Homo sapiens) (UniProt P14324). Description: ligand-induced stabilization of human FDPS – biophysical, DSF, SYPRO orange, purified protein (AID 387). The settings on record: DSF thermal shift, at 10 µM, protein 2 µM, buffer 10 mM HEPES, pH 7.5, NaCl 150 mM, MgCl4 50 µM, stronger effect = higher value.
Farnesyl pyrophosphate synthase (Homo sapiens), sequence (P14324 whole entry, looked up): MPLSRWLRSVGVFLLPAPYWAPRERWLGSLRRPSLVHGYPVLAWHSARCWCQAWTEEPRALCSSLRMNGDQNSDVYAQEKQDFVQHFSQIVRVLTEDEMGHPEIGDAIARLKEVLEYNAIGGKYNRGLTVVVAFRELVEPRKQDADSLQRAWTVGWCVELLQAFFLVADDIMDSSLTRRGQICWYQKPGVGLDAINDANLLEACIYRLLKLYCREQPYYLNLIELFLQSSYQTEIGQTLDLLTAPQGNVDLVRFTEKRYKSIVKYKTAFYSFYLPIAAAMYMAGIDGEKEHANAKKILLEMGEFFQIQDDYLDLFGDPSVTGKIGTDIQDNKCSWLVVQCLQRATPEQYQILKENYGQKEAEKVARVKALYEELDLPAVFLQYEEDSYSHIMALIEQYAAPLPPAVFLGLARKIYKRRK

Take `O=[P+](O)C(O)(Cc1cccnc1)P(=O)(O)O` (stereo unspecified): the Tm shift is 4.13 Celsius.

These data come from PubChem BioAssay AID387.
